Measurements taken from ChEMBL document CHEMBL1201862, “PubChem BioAssay data set” (2004).
Activity calls are given as the source filed them.

How the values were obtained:
Trypsin = Trypsin (Sus scrofa, UniProt P00761); assay: porcine trypsin inhibitors, dose response, selectivity assay for Rce1 protease inhibitor project, biochemical, quenched peptide fluorescence, cherry-pick (AID 488789)
CAAX prenyl protease 2 = target: T1, CAAX prenyl protease 2 (Saccharomyces cerevisiae S288c, UniProt Q03530); format: biochemical
T1 sequence (Q03530 whole entry): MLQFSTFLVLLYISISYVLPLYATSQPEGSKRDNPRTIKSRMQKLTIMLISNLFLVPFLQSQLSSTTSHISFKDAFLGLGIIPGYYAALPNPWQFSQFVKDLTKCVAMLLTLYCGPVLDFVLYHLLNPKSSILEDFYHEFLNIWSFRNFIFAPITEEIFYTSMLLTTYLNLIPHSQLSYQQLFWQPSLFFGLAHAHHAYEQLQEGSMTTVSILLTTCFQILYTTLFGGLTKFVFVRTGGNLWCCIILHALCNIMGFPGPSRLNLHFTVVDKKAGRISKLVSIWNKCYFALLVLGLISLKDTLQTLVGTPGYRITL

Cytochrome P450 2D6 = Cytochrome P450 2D6 (Homo sapiens, UniProt P10635);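 also: CYP2D6 member of a cytochrome P450 panel assay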
Cytochrome P450 2D6, sequence (P10635 whole entry): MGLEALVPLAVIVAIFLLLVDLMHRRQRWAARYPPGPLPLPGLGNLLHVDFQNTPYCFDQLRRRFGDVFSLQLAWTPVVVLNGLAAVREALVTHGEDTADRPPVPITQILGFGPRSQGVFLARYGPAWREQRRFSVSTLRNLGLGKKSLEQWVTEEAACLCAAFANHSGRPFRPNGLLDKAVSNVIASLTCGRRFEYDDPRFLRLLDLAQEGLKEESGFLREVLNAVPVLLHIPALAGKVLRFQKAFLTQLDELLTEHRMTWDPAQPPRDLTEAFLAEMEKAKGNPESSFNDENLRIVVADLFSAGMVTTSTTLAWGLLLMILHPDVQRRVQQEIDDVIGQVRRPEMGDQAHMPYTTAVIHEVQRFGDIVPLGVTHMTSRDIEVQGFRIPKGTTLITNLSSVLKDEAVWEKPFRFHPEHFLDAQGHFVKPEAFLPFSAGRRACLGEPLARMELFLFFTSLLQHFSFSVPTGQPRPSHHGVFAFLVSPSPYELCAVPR

Cytochrome P450 2C9 = Cytochrome P450 2C9 (Homo sapiens, UniProt P11712)
Cytochrome P450 2C9, sequence (P11712 whole entry): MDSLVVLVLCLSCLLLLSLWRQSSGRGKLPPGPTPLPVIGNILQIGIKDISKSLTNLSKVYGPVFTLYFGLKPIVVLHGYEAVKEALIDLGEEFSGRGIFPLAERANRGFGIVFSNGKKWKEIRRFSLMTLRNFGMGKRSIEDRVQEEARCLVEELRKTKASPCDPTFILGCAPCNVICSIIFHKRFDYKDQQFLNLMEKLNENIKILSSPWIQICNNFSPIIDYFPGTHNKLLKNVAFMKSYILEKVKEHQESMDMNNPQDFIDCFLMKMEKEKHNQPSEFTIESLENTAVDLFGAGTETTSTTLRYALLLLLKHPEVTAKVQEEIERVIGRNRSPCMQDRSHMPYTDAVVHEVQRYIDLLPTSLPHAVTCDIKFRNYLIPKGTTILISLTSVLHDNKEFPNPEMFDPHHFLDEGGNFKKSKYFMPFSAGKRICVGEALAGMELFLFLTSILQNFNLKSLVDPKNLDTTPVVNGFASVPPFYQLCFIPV

[1] = target: Glyceraldehyde-3-phosphate dehydrogenase (Homo sapiens, UniProt P04406)
Glyceraldehyde-3-phosphate dehydrogenase, sequence (P04406 whole entry): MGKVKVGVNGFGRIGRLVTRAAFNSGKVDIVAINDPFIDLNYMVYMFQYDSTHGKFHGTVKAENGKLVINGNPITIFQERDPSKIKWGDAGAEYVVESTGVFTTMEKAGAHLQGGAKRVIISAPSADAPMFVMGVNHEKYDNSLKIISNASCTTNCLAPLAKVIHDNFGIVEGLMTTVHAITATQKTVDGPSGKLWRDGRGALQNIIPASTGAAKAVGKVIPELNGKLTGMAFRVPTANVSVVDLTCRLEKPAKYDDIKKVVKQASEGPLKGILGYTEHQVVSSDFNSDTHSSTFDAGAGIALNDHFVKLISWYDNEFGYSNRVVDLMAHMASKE

[2] = target: T2, Alkaline phosphatase, tissue-nonspecific isozyme (Homo sapiens, UniProt P05186); assay: human TNAP enzyme inhibitors, SAR follow-up, biochemical, luminescent, dose response (AID 1056)
T2 sequence (P05186 whole entry): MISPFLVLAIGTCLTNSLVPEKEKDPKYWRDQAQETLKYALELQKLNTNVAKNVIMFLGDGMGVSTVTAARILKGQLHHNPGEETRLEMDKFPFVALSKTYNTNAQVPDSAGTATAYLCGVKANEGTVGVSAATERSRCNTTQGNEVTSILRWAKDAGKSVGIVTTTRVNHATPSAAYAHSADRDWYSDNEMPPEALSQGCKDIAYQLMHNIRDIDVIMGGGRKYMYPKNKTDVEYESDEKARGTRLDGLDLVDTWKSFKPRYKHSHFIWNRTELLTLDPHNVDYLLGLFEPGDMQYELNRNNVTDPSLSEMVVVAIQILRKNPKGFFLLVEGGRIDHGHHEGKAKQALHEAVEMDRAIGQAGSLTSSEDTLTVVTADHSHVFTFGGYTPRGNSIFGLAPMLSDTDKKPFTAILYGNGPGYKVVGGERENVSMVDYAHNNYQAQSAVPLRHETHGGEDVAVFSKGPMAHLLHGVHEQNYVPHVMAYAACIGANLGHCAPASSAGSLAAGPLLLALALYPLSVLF

Protein skinhead-1 = target: T3, Protein skinhead-1 (Caenorhabditis elegans, UniProt P34707); format: functional
T3 sequence (P34707 whole entry): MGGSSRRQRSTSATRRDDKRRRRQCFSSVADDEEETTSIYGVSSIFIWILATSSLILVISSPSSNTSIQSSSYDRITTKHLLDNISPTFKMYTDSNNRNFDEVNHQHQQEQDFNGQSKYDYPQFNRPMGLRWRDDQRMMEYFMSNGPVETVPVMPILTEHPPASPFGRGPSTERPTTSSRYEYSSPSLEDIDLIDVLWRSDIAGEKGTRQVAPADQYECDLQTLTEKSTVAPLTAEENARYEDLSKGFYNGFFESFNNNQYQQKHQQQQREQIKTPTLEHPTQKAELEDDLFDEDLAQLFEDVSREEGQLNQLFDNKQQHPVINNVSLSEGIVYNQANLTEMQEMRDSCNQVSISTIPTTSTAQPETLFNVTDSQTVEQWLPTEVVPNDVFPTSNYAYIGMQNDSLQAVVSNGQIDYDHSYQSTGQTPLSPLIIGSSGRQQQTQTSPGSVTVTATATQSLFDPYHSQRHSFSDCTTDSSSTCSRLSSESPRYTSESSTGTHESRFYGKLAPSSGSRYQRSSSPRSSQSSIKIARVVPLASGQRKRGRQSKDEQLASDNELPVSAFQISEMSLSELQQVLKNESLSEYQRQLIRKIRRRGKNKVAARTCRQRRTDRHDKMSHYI

[3] = NIH-3T3 fibroblast cytotoxicity, dose response, cytotoxicity control, cell-based, fluorescence, Alamar Blue, secondary assay (AID 2327); format: functional;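 also: NIH-3T3 mouse fibroblasts cultured with fluconazole at 8 µg/mL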
[4] = C. albicans growth with fluconazole, confirmation, fluorescence, retest (AID 2467); format: functional, cell-based
[5] = target: T4, Serine/threonine-protein phosphatase (Candida dubliniensis (strain CD36 / CBS 7987 / NCPF 3949 / NRRLY-17841) (Yeast), UniProt B9W6M3); assay: calcineurin pathway inhibitors in yeast reporter, dose response, S. cerevisiae, CDRE-lacZ, luminescence, secondary (AID 2388); format: functional, cell-based;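 also: yeast reporter cells carrying a calcineurin-responsive lacZ construct stimulated with calcium chloride; luminescent beta-galactosidase reporter signal in whole cells rather than isolated phosphatase activity; potency for inhibition where a drop in reporter signal means calcineurin blockade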
T4 sequence (B9W6M3 whole entry): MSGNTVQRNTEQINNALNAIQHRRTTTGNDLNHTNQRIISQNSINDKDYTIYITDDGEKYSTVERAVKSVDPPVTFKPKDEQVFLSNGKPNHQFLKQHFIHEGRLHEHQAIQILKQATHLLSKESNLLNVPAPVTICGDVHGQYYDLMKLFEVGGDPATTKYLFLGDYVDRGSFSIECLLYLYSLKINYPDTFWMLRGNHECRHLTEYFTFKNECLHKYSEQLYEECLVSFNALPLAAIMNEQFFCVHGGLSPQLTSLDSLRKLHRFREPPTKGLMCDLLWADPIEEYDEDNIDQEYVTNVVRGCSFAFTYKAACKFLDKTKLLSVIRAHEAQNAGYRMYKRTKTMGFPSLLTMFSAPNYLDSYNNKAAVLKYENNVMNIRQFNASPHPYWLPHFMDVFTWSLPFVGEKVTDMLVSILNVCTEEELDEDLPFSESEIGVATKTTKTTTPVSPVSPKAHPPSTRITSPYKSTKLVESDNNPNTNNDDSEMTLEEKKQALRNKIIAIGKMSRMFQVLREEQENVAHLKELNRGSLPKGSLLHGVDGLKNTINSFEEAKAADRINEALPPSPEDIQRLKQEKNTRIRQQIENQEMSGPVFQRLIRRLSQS

[6] = target: ATP-dependent molecular chaperone HSP82 (Candida albicans (strain WO-1) (Yeast), UniProt C4YTQ8); assay: loss of DOC-induced GRE-beta-galactosidase reporter signal, dose response, Hsp90 inhibitor project, S. cerevisiae, luminescence (AID 2400); format: functional, cell-based;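 also: beta-galactosidase luminescence from glucocorticoid response element reporter as proxy for Hsp90 function; inhibitor potency where signal loss means Hsp90 inhibition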
ATP-dependent molecular chaperone HSP82, sequence (C4YTQ8 whole entry): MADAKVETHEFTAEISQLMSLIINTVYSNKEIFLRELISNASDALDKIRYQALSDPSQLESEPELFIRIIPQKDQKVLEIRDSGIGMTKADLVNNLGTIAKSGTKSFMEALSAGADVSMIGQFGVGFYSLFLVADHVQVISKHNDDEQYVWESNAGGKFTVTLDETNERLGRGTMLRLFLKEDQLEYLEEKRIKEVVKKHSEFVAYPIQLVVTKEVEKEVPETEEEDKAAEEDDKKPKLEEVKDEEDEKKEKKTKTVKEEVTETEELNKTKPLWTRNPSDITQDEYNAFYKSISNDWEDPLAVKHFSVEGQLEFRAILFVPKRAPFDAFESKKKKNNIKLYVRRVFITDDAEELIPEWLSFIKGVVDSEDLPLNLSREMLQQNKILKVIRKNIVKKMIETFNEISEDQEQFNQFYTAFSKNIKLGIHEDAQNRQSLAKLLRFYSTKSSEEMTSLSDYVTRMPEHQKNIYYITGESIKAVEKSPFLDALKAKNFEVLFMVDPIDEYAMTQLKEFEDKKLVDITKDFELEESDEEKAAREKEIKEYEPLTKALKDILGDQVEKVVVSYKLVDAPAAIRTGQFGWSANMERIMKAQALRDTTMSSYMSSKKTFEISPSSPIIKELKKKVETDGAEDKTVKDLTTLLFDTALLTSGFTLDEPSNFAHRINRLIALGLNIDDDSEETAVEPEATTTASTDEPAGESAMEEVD

[7] = target: G-protein coupled receptor 55 (Homo sapiens, UniProt Q9Y2T6); assay: GPR55 antagonists blocking LPI-driven arrestin recruitment, primary screen, imaging, U2OS, beta-arrestin-GFP, LPI agonist (AID 2013); format: functional;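 also: antagonist potency measured as reduced agonist-driven arrestin aggregation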
G-protein coupled receptor 55, sequence (Q9Y2T6 whole entry): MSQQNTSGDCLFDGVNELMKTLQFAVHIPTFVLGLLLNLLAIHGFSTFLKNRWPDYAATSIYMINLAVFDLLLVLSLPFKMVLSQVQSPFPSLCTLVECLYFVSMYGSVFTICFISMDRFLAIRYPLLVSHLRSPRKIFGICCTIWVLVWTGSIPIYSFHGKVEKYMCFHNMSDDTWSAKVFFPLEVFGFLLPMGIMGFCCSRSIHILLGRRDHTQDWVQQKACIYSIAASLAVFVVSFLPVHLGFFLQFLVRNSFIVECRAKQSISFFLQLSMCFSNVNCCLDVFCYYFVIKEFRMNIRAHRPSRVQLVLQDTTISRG

[8] = target: Protein-tyrosine kinase 2-beta (Homo sapiens, UniProt Q14289);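 also: potency of inhibitors of PYK2 kinase phosphorylation of poly-GT substrate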
Protein-tyrosine kinase 2-beta, sequence (Q14289 whole entry): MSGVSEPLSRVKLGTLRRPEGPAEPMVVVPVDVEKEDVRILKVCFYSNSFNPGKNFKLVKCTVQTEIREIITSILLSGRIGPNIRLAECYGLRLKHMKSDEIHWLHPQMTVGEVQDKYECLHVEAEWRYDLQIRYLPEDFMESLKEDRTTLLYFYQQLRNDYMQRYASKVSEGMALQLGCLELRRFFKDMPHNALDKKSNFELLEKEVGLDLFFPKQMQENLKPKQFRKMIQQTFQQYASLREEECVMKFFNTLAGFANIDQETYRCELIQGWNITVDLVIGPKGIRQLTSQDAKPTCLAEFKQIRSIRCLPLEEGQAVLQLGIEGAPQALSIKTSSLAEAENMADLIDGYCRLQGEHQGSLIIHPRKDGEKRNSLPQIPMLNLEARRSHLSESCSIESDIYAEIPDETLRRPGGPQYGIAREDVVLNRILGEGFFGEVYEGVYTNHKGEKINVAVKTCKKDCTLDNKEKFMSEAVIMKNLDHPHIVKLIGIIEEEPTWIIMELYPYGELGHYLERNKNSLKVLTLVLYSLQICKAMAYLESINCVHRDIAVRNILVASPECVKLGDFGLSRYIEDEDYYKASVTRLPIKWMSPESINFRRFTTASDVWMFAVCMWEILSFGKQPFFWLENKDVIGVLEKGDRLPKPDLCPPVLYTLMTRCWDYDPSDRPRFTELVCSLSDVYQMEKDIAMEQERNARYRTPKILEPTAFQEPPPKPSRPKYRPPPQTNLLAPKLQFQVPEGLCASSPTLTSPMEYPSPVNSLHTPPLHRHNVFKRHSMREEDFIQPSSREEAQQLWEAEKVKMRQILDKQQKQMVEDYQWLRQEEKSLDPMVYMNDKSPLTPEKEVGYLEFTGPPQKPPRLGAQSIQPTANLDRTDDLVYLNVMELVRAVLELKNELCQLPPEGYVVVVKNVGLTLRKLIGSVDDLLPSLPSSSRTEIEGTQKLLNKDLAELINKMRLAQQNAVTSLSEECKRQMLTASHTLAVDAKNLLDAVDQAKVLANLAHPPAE

Coagulation factor XII = target: T5, Coagulation factor XII (Homo sapiens, UniProt P00748); format: functional;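 also: activated factor XIIa alpha cleaving a fluorogenic AMC peptide substrate; inhibitor potency from loss of enzyme activity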
T5 sequence (P00748 whole entry): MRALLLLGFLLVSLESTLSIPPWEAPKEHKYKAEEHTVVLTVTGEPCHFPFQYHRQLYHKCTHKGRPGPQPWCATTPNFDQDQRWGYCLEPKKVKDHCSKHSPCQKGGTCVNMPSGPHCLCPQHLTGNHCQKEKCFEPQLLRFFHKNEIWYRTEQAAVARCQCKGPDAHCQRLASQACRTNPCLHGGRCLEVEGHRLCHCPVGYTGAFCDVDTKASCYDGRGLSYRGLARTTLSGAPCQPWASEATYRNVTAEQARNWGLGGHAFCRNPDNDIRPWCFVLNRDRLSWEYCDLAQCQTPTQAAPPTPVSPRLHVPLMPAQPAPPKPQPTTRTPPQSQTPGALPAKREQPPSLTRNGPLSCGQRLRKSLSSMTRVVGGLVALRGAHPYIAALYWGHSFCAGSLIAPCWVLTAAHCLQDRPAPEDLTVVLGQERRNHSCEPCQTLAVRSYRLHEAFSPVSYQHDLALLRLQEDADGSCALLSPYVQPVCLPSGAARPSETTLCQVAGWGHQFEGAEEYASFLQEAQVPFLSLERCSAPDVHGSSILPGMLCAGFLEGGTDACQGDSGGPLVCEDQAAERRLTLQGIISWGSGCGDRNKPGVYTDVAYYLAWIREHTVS

Troponin, cardiac muscle = Troponin, cardiac muscle (Homo sapiens, UniProt P19429+P45379+P63316); assay: Fluorescence-based biochemical high throughput dose response assay for activators of the calcium sensitivity of cardiac Regulated Thin Filaments (RTF). [Related pubchem assays (depositor defined):AID493008, AID493018, AID504382, AID504383]; format: protein-complex assay
[9] = insulin promoter down-regulators in MIN6 cells, imaging, high-content screening, mouse beta cells (AID 1628); format: functional
BJ [10] = assay: cytotoxicity toward BJ-TERT fibroblasts, dose response, cell-based, RAS-independent, luminescence (AID 1933); format: functional; details: Homo sapiens
[11] = cytotoxicity in MIN6 insulinoma cells, dose response, cytotoxicity control, cell-based, mouse insulinoma (AID 2122); format: functional;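 also: confirmatory high-throughput counterscreen run to flag cytotoxic compounds; mouse MIN-6 beta cells carrying an insulin promoter eGFP reporter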
BJ [12] = assay: cells; format: functional, cell-based; details: Homo sapiens
BJ [13] = assay: cytotoxicity toward BJ-TERT-LT-ST fibroblasts, dose response, cell-based, RAS-independent, luminescence (AID 1935); format: functional; details: Homo sapiens;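 also: BJ fibroblasts immortalized with TERT plus LT and ST oncogenes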
[14] = cytotoxicity toward DRD oncogenic fibroblasts, dose response, cell-based, non-viral oncogenic, luminescence (AID 1934); format: functional; details: Homo sapiens
[15] = target: FAD-linked sulfhydryl oxidase ALR (Homo sapiens, UniProt P55789); assay: inhibitors of human ALR sulfhydryl oxidase, dose response, biochemical, H2O2 detection, luminescence, cherry-pick (AID 493248)
FAD-linked sulfhydryl oxidase ALR, sequence (P55789 whole entry): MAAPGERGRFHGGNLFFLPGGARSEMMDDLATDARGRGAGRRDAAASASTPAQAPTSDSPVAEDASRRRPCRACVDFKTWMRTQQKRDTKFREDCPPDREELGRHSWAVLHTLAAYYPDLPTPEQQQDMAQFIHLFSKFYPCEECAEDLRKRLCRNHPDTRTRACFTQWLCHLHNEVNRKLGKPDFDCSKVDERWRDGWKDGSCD

Nonstructural protein 1 = Nonstructural protein 1 (Influenza A virus, UniProt Q194T2); format: functional, Influenza A virus (A/California/07/2009(H1N1))
Nonstructural protein 1, sequence (Q194T2 whole entry): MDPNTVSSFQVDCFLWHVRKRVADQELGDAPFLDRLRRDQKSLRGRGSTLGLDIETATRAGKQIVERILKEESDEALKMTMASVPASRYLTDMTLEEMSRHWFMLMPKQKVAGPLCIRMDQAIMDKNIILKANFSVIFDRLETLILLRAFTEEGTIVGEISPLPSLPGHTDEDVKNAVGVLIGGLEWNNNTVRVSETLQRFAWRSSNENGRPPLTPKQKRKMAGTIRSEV

Hexokinase = target: T6, Hexokinase (Trypanosoma brucei, UniProt Q38C41); assay: Confirmation assay for inhibitors of Trypanosoma brucei hexokinase 1-Analogue-first series. [Related pubchem assays (depositor defined):AID1430, AID1632, AID2516, AID2560, AID2579, AID2600, AID449725, AID492951]; format: functional
T6 sequence (Q38C41 whole entry): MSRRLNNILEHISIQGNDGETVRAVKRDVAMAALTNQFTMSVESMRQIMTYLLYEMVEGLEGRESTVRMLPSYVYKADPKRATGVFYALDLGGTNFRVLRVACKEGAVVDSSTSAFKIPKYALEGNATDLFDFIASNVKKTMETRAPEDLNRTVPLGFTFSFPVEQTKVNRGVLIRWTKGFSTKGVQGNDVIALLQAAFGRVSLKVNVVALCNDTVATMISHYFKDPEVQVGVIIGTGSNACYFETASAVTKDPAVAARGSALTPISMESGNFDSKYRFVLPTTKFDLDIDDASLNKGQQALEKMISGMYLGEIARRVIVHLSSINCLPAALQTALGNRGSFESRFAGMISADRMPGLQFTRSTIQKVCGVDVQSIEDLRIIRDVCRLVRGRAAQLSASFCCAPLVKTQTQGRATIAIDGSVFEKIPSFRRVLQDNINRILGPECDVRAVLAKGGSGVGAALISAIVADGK

[16] = target: Beta-2 adrenergic receptor (Homo sapiens, UniProt P07550); assay: beta2AR agonists driving receptor internalization, dose response, cell-based, FAP fluorogen, flow cytometry, cherry pick 1 (AID 588763); format: functional
Beta-2 adrenergic receptor, sequence (P07550 whole entry): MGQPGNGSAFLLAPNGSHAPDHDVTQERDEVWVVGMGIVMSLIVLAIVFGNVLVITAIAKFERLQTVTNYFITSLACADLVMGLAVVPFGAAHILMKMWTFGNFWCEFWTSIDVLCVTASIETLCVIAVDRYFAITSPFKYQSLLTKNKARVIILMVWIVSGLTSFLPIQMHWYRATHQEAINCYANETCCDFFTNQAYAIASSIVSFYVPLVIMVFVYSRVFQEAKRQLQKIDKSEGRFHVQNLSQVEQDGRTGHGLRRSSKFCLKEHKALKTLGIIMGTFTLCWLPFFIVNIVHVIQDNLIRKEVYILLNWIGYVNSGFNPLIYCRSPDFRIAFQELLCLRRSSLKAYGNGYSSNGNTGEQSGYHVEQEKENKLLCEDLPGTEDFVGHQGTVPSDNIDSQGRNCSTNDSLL

HEK293 = assay: inhibitors of LMP1-driven NF-kB reporter, dose response, cell-based, HEK293, luciferase, cherry-pick (AID 588343); format: functional; details: Homo sapiens

Trypsin, sequence (P00761 whole entry): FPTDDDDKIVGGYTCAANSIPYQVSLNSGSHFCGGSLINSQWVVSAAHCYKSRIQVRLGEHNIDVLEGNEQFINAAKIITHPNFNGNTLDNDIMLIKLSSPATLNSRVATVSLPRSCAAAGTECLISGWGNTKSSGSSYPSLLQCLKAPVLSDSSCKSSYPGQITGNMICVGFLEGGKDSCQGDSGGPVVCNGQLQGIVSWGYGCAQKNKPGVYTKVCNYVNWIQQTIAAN

SMILES: Cc1cc(C)n2cc(CSc3nncn3C)nc2n1
- AC50 (Trypsin): 8.35 µM (active)
- AC50 (CAAX prenyl protease 2): 13.8 µM (active)

SMILES: O=c1c(-c2nnc(SCc3ccc(Cl)c(Cl)c3)o2)cccn1Cc1ccccc1
- AC50 (CAAX prenyl protease 2): 11 µM (active)
- AC50 (Cytochrome P450 2D6): 28.2 µM (inconclusive)
- AC50 (Cytochrome P450 2C9): 15.8 µM (inconclusive)

SMILES: COC(=O)c1cc(-c2ccc(Br)cc2)n[nH]1
- IC50 [1]: > 100 µM (not active)
- IC50 [2]: > 100 µM (inactive)
- IC50 (Protein skinhead-1): > 100 µM (inactive)

SMILES: O=C(Cc1nc2ccccc2s1)c1ccc(O)cc1O
- EC50 [3]: > 160 µM (inactive)
- EC50 [4]: 0.691 µM (active)
- EC50 [5]: > 180 µM (inactive)
- EC50 [6]: > 160 µM (inactive)

SMILES: Cc1ccccc1N(C(=O)c1cccs1)c1nc2ccccc2s1
- IC50 [7]: 1.52 µM (active)

SMILES: O=c1oc(-c2ccc(Br)o2)nc2ccccc12
- IC50 [8]: 2.66 µM (active)
- IC50 (Coagulation factor XII): > 50 µM (inactive)

SMILES: COc1ccccc1N1CCN(c2ccc([N+](=O)[O-])cc2Cl)CC1
- EC50 (Troponin, cardiac muscle): > 71.5 µM (inactive)

SMILES: N#C/C(=C\c1ccc(N2CCOCC2)cc1)c1ccccc1
- EC50 [3]: > 150 µM (inactive)
- EC50 [4]: 0.49 µM (active)
- EC50 [5]: > 180 µM (inactive)
- EC50 [6]: 68.9 µM (active)

SMILES: CCc1nc(C)cn1S(=O)(=O)c1cc([N+](=O)[O-])ccc1Cl
- IC50 [9]: 2.59 µM (active)
- EC50 (BJ [10]): 8.45 µM (inconclusive)
- IC50 [11]: 2.53 µM (active)
- EC50 (BJ [12]): 4.81 µM (inconclusive)
- IC50 [7]: 6.53 µM (active)
- EC50 (BJ [13]): 3.93 µM (active)
- EC50 [14]: 7.62 µM (inconclusive)

SMILES: NS(=O)(=O)c1ccc(NNC(=O)c2sccc2Cl)cc1
- IC50 (Coagulation factor XII): > 50 µM (inactive)

SMILES: O=C1NC(=O)N(Cc2ccc(F)cc2)C(=O)/C1=C/NNc1ccccc1
- EC50 (Troponin, cardiac muscle): > 71.5 µM (inactive)
- AC50 [15]: 0.438 µM (active)

SMILES: CC1=NN(c2ccc(C)cc2)C(=O)/C1=C\C=C\c1ccccc1
- IC50 (Nonstructural protein 1): 21.1 µM (active)

SMILES: O=C(Nc1cc(Cl)ccc1C(=O)O)c1ccc(OC(F)(F)F)cc1
- IC50 (Hexokinase): > 25 µM (inactive)

SMILES: O=c1c2c(Br)cccc2sn1-c1ccccc1
- IC50 (Hexokinase): 1.93 µM (active)

SMILES: O=C(COc1ccccc1F)N1c2ccccc2CCc2ccccc21
- EC50 [16]: 1.6 µM (active)

SMILES: Cc1ccsc1/C=N/NC(=O)c1ccc2c(c1)OCCO2
- IC50 (Coagulation factor XII): > 50 µM (inactive)
- AC50 (HEK293): 7.87 µM (active)
